Columns and labels:
MDA-MB-468 [1] = assay: Anticancer activity against human MDA-MB-468 cells assessed as cell growth at 1 uM incubated for 48 hrs by SRB assay; assay type: functional; conditions: read-out: Activity
MCF7 [2] = assay: Anticancer activity against human MCF7 cells assessed as cell growth at 0.1 uM incubated for 48 hrs by SRB assay; assay type: functional; conditions: read-out: Activity
MDA-MB-435 [3] = assay: Anticancer activity against human MDA-MB-435 cells assessed as cell growth at 10 uM incubated for 48 hrs by SRB assay; assay type: functional; conditions: read-out: Activity
MDA-MB-468 [4] = assay: Anticancer activity against human MDA-MB-468 cells assessed as cell growth at 10 uM incubated for 48 hrs by SRB assay; assay type: functional; conditions: read-out: Activity
CYP1A1 [5] = biological target: T1, CYP1A1 (Homo sapiens, UniProt P04798); assay: Inhibition of recombinant CYP1A1 (unknown origin) assessed as residual enzyme activity using 7-ethoxyresorufin as substrate at 0.1 uM incubated for 15 mins by resorufin dye based spectrofluorimetry (reference value: 100%); assay type: ADME; conditions: recombinant CYP1A1, probe 7-ethoxyresorufin, read-out: Activity
T1 sequence (P04798 whole entry): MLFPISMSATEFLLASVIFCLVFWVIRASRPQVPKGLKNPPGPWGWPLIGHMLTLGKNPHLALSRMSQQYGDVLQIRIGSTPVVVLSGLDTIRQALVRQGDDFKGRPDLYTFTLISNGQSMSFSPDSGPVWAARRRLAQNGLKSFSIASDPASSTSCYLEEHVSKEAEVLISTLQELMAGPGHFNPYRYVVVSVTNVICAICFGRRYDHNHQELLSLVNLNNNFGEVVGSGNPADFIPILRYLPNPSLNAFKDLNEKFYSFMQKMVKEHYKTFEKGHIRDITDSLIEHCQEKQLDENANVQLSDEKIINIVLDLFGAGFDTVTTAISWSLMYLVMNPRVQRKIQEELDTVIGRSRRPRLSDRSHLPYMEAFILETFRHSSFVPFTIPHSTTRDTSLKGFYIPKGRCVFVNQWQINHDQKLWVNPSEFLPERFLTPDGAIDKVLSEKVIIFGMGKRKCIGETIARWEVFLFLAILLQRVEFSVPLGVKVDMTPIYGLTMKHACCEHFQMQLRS

MCF7 [6] = assay: Anticancer activity against human MCF7 cells assessed as cell growth at 1 uM incubated for 48 hrs by SRB assay; assay type: functional; conditions: read-out: Activity
MCF7 [7] = assay: Anticancer activity against human MCF7 cells assessed as inhibition of cell growth incubated for 48 hrs by SRB assay; assay type: functional; conditions: for CC50: read-out: LC50 (the source's name)
CYP1A1 [8] = biological target: T1, CYP1A1; assay: Inhibition of recombinant CYP1A1 (unknown origin) assessed as residual enzyme activity using 7-ethoxyresorufin as substrate at 50 uM incubated for 15 mins by resorufin dye based spectrofluorimetry (reference value: 100%); assay type: ADME; conditions: recombinant CYP1A1, probe 7-ethoxyresorufin, read-out: Activity
CYP1A1 [9] = biological target: T1, CYP1A1; assay: Inhibition of recombinant CYP1A1 (unknown origin) assessed as residual enzyme activity using 7-ethoxyresorufin as substrate at 1 uM incubated for 15 mins by resorufin dye based spectrofluorimetry (reference value: 100%); assay type: ADME; conditions: recombinant CYP1A1, probe 7-ethoxyresorufin, read-out: Activity
MDA-MB-468 [10] = assay: Anticancer activity against human MDA-MB-468 cells assessed as inhibition of cell growth incubated for 48 hrs by SRB assay; assay type: functional; conditions: for CC50: read-out: LC50 (the source's name)
NCI-H226 [11] = assay: Anticancer activity against human NCI-H226 cells assessed as cell growth at 0.1 uM incubated for 48 hrs by SRB assay; assay type: functional; conditions: read-out: Activity
CYP1A1 [12] = biological target: T1, CYP1A1; assay: Inhibition of recombinant CYP1A1 (unknown origin) assessed as residual enzyme activity using 7-ethoxyresorufin as substrate at 10 uM incubated for 15 mins by resorufin dye based spectrofluorimetry (reference value: 100%); assay type: ADME; conditions: recombinant CYP1A1, probe 7-ethoxyresorufin, read-out: Activity
Cytochrome P450 1A1 = biological target: T2, Cytochrome P450 1A1 (Homo sapiens, UniProt P04798); assay: Inhibition of recombinant CYP1A1 (unknown origin) assessed as decrease in EROD activity using 7-ethoxyresorufin as substrate upto 100 uM incubated for 15 mins by resorufin dye based spectrofluorimetry; assay type: ADME; conditions: recombinant enzyme, 0.25 h
T2 sequence (P04798 whole entry): T1 sequence (P04798 whole entry)

MCF7 [13] = assay: Anticancer activity against human MCF7 cells assessed as cell growth at 100 uM incubated for 48 hrs by SRB assay; assay type: functional; conditions: read-out: Activity
NCI-H226 [14] = assay: Anticancer activity against human NCI-H226 cells assessed as inhibition of cell growth incubated for 48 hrs by SRB assay; assay type: functional
MDA-MB-435 [15] = assay: Anticancer activity against human MDA-MB-435 cells assessed as cell growth at 100 uM incubated for 48 hrs by SRB assay; assay type: functional; conditions: read-out: Activity
MDA-MB-435 [16] = assay: Anticancer activity against human MDA-MB-435 cells assessed as cell growth at 0.1 uM incubated for 48 hrs by SRB assay; assay type: functional; conditions: read-out: Activity
MCF7 [17] = assay: Anticancer activity against human MCF7 cells assessed as cell growth at 10 uM incubated for 48 hrs by SRB assay; assay type: functional; conditions: read-out: Activity
MDA-MB-435 [18] = assay: Anticancer activity against human MDA-MB-435 cells assessed as cell growth at 1 uM incubated for 48 hrs by SRB assay; assay type: functional; conditions: read-out: Activity
CYP1A1 [19] = biological target: T1, CYP1A1; assay: Inhibition of recombinant CYP1A1 (unknown origin) assessed as residual enzyme activity using 7-ethoxyresorufin as substrate at 0.01 uM incubated for 15 mins by resorufin dye based spectrofluorimetry (reference value: 100%); assay type: ADME; conditions: recombinant CYP1A1, probe 7-ethoxyresorufin, read-out: Activity
NCI-H226 [20] = assay: Anticancer activity against human NCI-H226 cells assessed as cell growth at 1 uM incubated for 48 hrs by SRB assay; assay type: functional; conditions: read-out: Activity
CYP1A1 [21] = biological target: T1, CYP1A1; assay: Inhibition of recombinant CYP1A1 (unknown origin) assessed as residual enzyme activity using 7-ethoxyresorufin as substrate at 100 uM incubated for 15 mins by resorufin dye based spectrofluorimetry (reference value: 100%); assay type: ADME; conditions: recombinant CYP1A1, probe 7-ethoxyresorufin, read-out: Activity
MDA-MB-435 [22] = assay: Anticancer activity against human MDA-MB-435 cells assessed as inhibition of cell growth incubated for 48 hrs by SRB assay; assay type: functional
MDA-MB-468 [23] = assay: Anticancer activity against human MDA-MB-468 cells assessed as cell growth at 100 uM incubated for 48 hrs by SRB assay; assay type: functional; conditions: read-out: Activity
MDA-MB-468 [24] = assay: Anticancer activity against human MDA-MB-468 cells assessed as cell growth at 0.1 uM incubated for 48 hrs by SRB assay; assay type: functional; conditions: read-out: Activity
NCI-H226 [25] = assay: Anticancer activity against human NCI-H226 cells assessed as cell growth at 10 uM incubated for 48 hrs by SRB assay; assay type: functional; conditions: read-out: Activity
NCI-H226 [26] = assay: Anticancer activity against human NCI-H226 cells assessed as cell growth at 100 uM incubated for 48 hrs by SRB assay; assay type: functional; conditions: read-out: Activity

Row | Structure (SMILES) | growth at 0.1 µM (MCF7 [2]) | growth at 10 µM (MDA-MB-435 [3]) | activity at 0.25 h, 0.1 µM (CYP1A1 [5]) | growth at 1 µM (MCF7 [6]) | GI50 (MCF7 [7]) | TGI (MCF7 [7]) | CC50 (MCF7 [7]) | activity at 0.25 h, 50 µM (CYP1A1 [8]) | activity at 0.25 h, 1 µM (CYP1A1 [9]) | GI50 (MDA-MB-468 [10]) | TGI (MDA-MB-468 [10]) | CC50 (MDA-MB-468 [10]) | growth at 0.1 µM (NCI-H226 [11]) | activity at 0.25 h, 10 µM (CYP1A1 [12]) | inhibition (INH) (Cytochrome P450 1A1) | growth at 100 µM (MCF7 [13]) | GI50 (NCI-H226 [14]) | LC50 (concentration killing 50% of cells) (NCI-H226 [14]) | TGI (NCI-H226 [14]) | growth at 100 µM (MDA-MB-435 [15]) | further results
1 | Cc1cc(C)cc(O[C@H](C)C(=O)Nc2ccc(F)c([N+](=O)[O-])c2)c1 | 89.3% | 100% | 93.5% | 85.5% | 61.6 µM | > 100 µM | > 100 µM | 96.6% | 94.2% | 40.9 µM | 79.1 µM | > 100 µM | 73.7% | 95.7% | Not Active | 27.8% | > 100 µM | > 100 µM | > 100 µM | 89.5% | growth at 1 µM (MDA-MB-468 [1]): 97.9%; growth at 10 µM (MDA-MB-468 [4]): 95.9%; growth at 0.1 µM (MDA-MB-435 [16]): 100%; growth at 10 µM (MCF7 [17]): 73.5%; growth at 1 µM (MDA-MB-435 [18]): 100%; activity at 0.25 h, 0.01 µM (CYP1A1 [19]): 98.8%; growth at 1 µM (NCI-H226 [20]): 71.8%; activity at 0.25 h, 100 µM (CYP1A1 [21]): 96.4%; GI50 (MDA-MB-435 [22]): > 100 µM; LC50 (MDA-MB-435 [22]): > 100 µM; TGI (MDA-MB-435 [22]): > 100 µM; growth at 100 µM (MDA-MB-468 [23]): -29.4%; growth at 0.1 µM (MDA-MB-468 [24]): 99.1%; growth at 10 µM (NCI-H226 [25]): 65.6%; growth at 100 µM (NCI-H226 [26]): 58.2%
2 | Cc1ccc(-c2cc(C(N)=O)c3cc(Cl)ccc3n2)o1 | 98.2% | 87.2% | 101% | 92.5% | 63.9 µM | > 100 µM | > 100 µM | 100% | 101% | > 100 µM | > 100 µM | > 100 µM | 84.8% | 98.6% | Not Active | 25.5% | 70.5 µM | > 100 µM | > 100 µM | 77.2% | growth at 1 µM (MDA-MB-468 [1]): 90.6%; growth at 10 µM (MDA-MB-468 [4]): 85.9%; growth at 0.1 µM (MDA-MB-435 [16]): 98.4%; growth at 10 µM (MCF7 [17]): 79%; growth at 1 µM (MDA-MB-435 [18]): 95%; activity at 0.25 h, 0.01 µM (CYP1A1 [19]): 98.5%; growth at 1 µM (NCI-H226 [20]): 76.6%; activity at 0.25 h, 100 µM (CYP1A1 [21]): 104%; GI50 (MDA-MB-435 [22]): > 100 µM; LC50 (MDA-MB-435 [22]): > 100 µM; TGI (MDA-MB-435 [22]): > 100 µM; growth at 100 µM (MDA-MB-468 [23]): 72.5%; growth at 0.1 µM (MDA-MB-468 [24]): 91.9%; growth at 10 µM (NCI-H226 [25]): 60.5%; growth at 100 µM (NCI-H226 [26]): 39.9%
3 | C[C@H](Oc1ccc(Cl)cc1)C(=O)Nc1sc2c(c1C(N)=O)CCCC2 | 81.5% | 100% | 97.7% | 76.3% | 56.3 µM | > 100 µM | > 100 µM | 97.4% | 97.2% | > 100 µM | > 100 µM | > 100 µM | 80.9% | 98.2% | Not Active | 27.2% | > 100 µM | > 100 µM | > 100 µM | 86.9% | growth at 1 µM (MDA-MB-468 [1]): 100%; growth at 10 µM (MDA-MB-468 [4]): 78.7%; growth at 0.1 µM (MDA-MB-435 [16]): 100%; growth at 10 µM (MCF7 [17]): 71.7%; growth at 1 µM (MDA-MB-435 [18]): 100%; activity at 0.25 h, 0.01 µM (CYP1A1 [19]): 100%; growth at 1 µM (NCI-H226 [20]): 72.9%; activity at 0.25 h, 100 µM (CYP1A1 [21]): 102%; GI50 (MDA-MB-435 [22]): > 100 µM; LC50 (MDA-MB-435 [22]): > 100 µM; TGI (MDA-MB-435 [22]): > 100 µM; growth at 100 µM (MDA-MB-468 [23]): 65.5%; growth at 0.1 µM (MDA-MB-468 [24]): 100%; growth at 10 µM (NCI-H226 [25]): 68.1%; growth at 100 µM (NCI-H226 [26]): 61.9%
4 | NC(=O)c1c(NC(=O)Cc2ccc(F)cc2)sc2c1CCCC2 | 89.7% | 98.9% | 102% | 84.8% | 68.1 µM | > 100 µM | > 100 µM | 98.1% | 100% | 91 µM | > 100 µM | > 100 µM | 89.8% | 102% | Not Active | 32.2% | 65.7 µM | > 100 µM | > 100 µM | 84.9% | growth at 0.1 µM (MDA-MB-435 [16]): 99.7%; growth at 10 µM (MCF7 [17]): 79.3%; growth at 1 µM (MDA-MB-435 [18]): 99.3%; activity at 0.25 h, 0.01 µM (CYP1A1 [19]): 99.8%; growth at 1 µM (NCI-H226 [20]): 78.7%; activity at 0.25 h, 100 µM (CYP1A1 [21]): 102%; GI50 (MDA-MB-435 [22]): > 100 µM; LC50 (MDA-MB-435 [22]): > 100 µM; TGI (MDA-MB-435 [22]): > 100 µM; growth at 10 µM (NCI-H226 [25]): 71.9%; growth at 100 µM (NCI-H226 [26]): 33%

— ChEMBL document CHEMBL5257023, “Identification of leads for antiproliferative activity on MDA-MB-435 human breast cancer cells through pharmacophore and CYP1A1-mediated metabolism” (Eur J Med Chem, 2016)
